For one assay, the system named is SARS-CoV-2 pseudovirus. In kind it is cell-based.
Assay [1] addresses T1, HCoV-OC43 M^pro (Human coronavirus OC43, UniProt P0C6X6). In kind it is binding.
A further assay deals with HCoV-NL63. Briefly: microbe, parasite or virus in culture. The class given is cell-based. Particulars: Human coronavirus NL63, read-out: HCoV-NL63 (EC50, μM).
Assay [2] relates to HCoV-229E. Briefly: microbe, parasite or virus in culture. In kind it is cell-based. Particulars: Human coronavirus 229E, read-out: HCoV-229E (EC50, μM).
Assay [3] deals with HCoV-229E. The note with it: read-out: EC50 against HCoV-229E; cited from earlier work.
Another assay has as its system SARS-CoV-2 M^pro. Particulars: cited from earlier work.
In assay [4] the target is T2, SARS-CoV M^pro (Severe acute respiratory syndrome coronavirus, UniProt P0C6X7). The note with it: cited from earlier work.
Assay [5] deals with T1, HCoV-OC43 M^pro. Briefly: biochemical.
For assay [6], the target named is T3, MERS-CoV M^pro (Middle East respiratory syndrome-related coronavirus, UniProt K9N7C7). In words: biochemical.
T3 sequence (K9N7C7 3248-3553 limits assumed): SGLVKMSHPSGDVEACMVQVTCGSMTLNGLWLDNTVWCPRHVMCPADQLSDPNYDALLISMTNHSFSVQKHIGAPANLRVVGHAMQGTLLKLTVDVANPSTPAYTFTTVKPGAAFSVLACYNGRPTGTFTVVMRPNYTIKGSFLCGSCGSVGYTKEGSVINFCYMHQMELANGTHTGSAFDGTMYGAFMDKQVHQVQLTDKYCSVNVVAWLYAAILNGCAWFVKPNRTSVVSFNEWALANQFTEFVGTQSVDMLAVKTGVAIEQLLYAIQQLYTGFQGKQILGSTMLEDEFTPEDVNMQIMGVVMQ
For assay [7], the target named is T3, MERS-CoV M^pro. The class given is binding.
Assay [8] has as its target T2, SARS-CoV M^pro. The class given is binding.
The subject of another assay is HCoV-OC43. In words: Combination therapy with remdesivir in HCoV-OC43 CPE assay. The class given is cell-based. The note with it: combination ratios 8:1 to 1:8.
The subject of a further assay is SARS-CoV-2. The note with it: read-out: SARS-CoV-2 (EC50, μM), cellular antiviral activity; CPE assay; cited from earlier work.
The next assay deals with SARS-CoV. Briefly: microbe, parasite or virus in culture. In kind it is cell-based. Particulars: Severe acute respiratory syndrome coronavirus, Vero 76, 96 h, read-out: SARS-CoV (EC50, μM).
Assay [9] concerns the target T2, SARS-CoV M^pro. In words: biochemical.

Read-outs that look alike come from different tables or passages of the source.

The source of these data is publication PMC7605558 (bioRxiv, 2020).

T1 sequence (P0C6X6 3247-3549 limits assumed): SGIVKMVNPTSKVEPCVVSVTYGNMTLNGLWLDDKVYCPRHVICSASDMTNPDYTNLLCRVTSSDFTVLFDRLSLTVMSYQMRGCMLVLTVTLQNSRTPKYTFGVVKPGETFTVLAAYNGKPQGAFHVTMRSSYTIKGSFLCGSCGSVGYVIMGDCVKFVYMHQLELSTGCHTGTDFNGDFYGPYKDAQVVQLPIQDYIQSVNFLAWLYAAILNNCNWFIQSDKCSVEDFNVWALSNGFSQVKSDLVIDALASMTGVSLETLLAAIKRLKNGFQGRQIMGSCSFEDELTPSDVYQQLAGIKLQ

`CCOC(=O)[C@H]1O[C@@H]1C(=O)N[C@@H](CC(C)C)C(=O)NCCC(C)C` [E-64d]: the IC50 in the assay on SARS-CoV-2 pseudovirus (read-out: IC50 of SARS-CoV-2 pseudovirus entry) stood at 910 ± 100 nM.
With `CCC(CC)COC(=O)[C@H](C)N[P@](=O)(OC[C@H]1O[C@@](C#N)(c2ccc3c(N)ncnn23)[C@H](O)[C@@H]1O)Oc1ccccc1` [remdesivir], at HCoV-OC43 M^pro [1], the “HCoV-OC43 M^pro (ΔTm, °C)” value was 0.00 ± 0.02 °C. Also, at HCoV-OC43 M^pro [1], the “effect on HCoV-OC43 M^pro stability (Tm)” value is on record as “no effect”. Also, the results for the EC50 in the assay on HCoV-NL63 and in the assay on HCoV-229E [2] were 0.63 ± 0.041 µM and 0.03 µM, respectively.
For `CCOC(=O)/C=C/[C@H](C[C@@H]1CCNC1=O)NC(=O)[C@@H](CC(=O)[C@@H](NC(=O)c1cc(C)on1)C(C)C)Cc1ccc(F)cc1` [rupintrivir], the EC50 in the assay on HCoV-229E [3] was 300 nM. Also, the “inhibition of SARS-CoV-2 M^pro” value with SARS-CoV-2 M^pro is “failed to inhibit”. Moreover, at SARS-CoV M^pro [4], the “inhibition of SARS-CoV M^pro” value is “failed to inhibit”.
In the case of `CC(C)(C)NC(=O)N[C@H](C(=O)N1C[C@H]2[C@@H]([C@H]1C(=O)NC(CC1CCC1)C(=O)C(N)=O)C2(C)C)C(C)(C)C` (stereo partly drawn) [boceprevir], the IC50 against HCoV-OC43 M^pro [5] is 9000 nM; at MERS-CoV M^pro [6] it was 10400 nM; in the assay with SARS-CoV-2 M^pro (read-out: IC50 against SARS-CoV-2 M^pro, enzymatic assay), […]; against SARS-CoV M^pro [9], 6630 nM. In addition, the Ki came out at 2290 nM on HCoV-OC43 M^pro [5], 1650 ± 120 nM at MERS-CoV M^pro [6] and 1430 nM on SARS-CoV M^pro [9] (KI against SARS-CoV M^pro). Moreover, the “MERS-CoV M^pro (ΔTm, °C)” value on MERS-CoV M^pro [7] turned out to be 2.46 ± 0.07 °C. Besides, at HCoV-OC43 M^pro [1], the “HCoV-OC43 M^pro (ΔTm, °C)” value amounted to 1.02 ± 0.05 °C. Besides, the EC50 is 16.9 ± 5.87 µM in the assay on HCoV-NL63, 14.1 ± 1.5 µM in the assay on HCoV-229E [2], 1.31 ± 0.58 µM in the assay with SARS-CoV-2 and 54.2 ± 7.76 µM in the assay with SARS-CoV. Moreover, the “SARS-CoV M^pro (ΔTm, °C)” value on SARS-CoV M^pro [8] stood at 3.94 ± 0.13 °C. In the assay with HCoV-OC43, the “antiviral effect in combination with remdesivir (combination indices)” value is reported as “additive antiviral effect”. In addition, the “effect on cathepsin L-mediated SARS-CoV-2 pseudovirus entry” value with SARS-CoV-2 pseudovirus is given as “no effect”.
